Experimental data taken from patent publication US9072729B2, “Method for treating fibrosis and cancer with imidazolium and imidazolinium compounds” (Agency for Science, Technology and Research, priority 2008, dated 2015).

Experiments:
HLE cells = experiment: ROS determination in HLE cells (dihydroethidium); format: cell-based, human; details: millimolar range, 24 hr
Protocol: FIG. 27. High dose DBZIM induced ROS production in HLE cells. HLE cells were grown in 96-Well plate and treated by DBZIM for 24 hr. The cells were then fixed and stained by DHE for quantification of ROS generation. The images ware acquired and analyzed using ArrayScan VTI HCS reader (Thermal Scientific, PA, USA) and Target Activation BioApplication software.
Oxidative stress was measured using Cellomic HitKit (Thermo Scientific, IL, USA). HLE cells were treated with DBZIM for 24 hr, fixed and labeled by Dihydroethidium probe for quantitation of ROS generation and Hoechst dye for nuclear staining. The result was analyzed by Target Activation BioApplication software. The percentage of positive responding cells was plotted as the indication of ROS amount.

caspase-3/9 and PARP = experiment: Western blot of caspase-3, caspase-9 and PARP in MCF-7 and AGS; format: cell-based, human; details: 50 μM
Protocol: FIG. 31. DBZIM induces cleavage of caspase-3, caspase-9 and PARP as indication of apoptosis. Western blot analysis for the effect of DBZIM, on the cleavage of caspase-3, Caspase-9 and PARP A) in p53 wild type gastric cancer cell AGS and B) in p53 wild type breast cancer cell line MCF-7. Western blot analysis conducted on cells after 72 h exposure to 50 μM of DBZIM.
To determine whether cells undergo apoptosis, Western blotting was first performed for a caspase-3/9 and PARP activation with proteins from MCF-7 and AGS treated with DBZIM. […] Similarly we observed a DBZIM-induced elevation of caspase 3/7 in C6 (by 3 folds at 2.0 mM) and in U87 MG (by 17 folds at 2 mM) (FIGS. 30B and 30D).

C6 = experiment: Caspase 3/7 activity in C6; format: cell-based, rat; details: C6, 2.0 mM, 6 hr
Protocol: FIG. 30. DBZIM inhibited cell proliferation in glioma cell line C6 (A) and U87 MG (C) and induced caspase 3/7 activity in C6 (B) and U87 MG (D). C6 or U87 cells were incubated with DBZIM of various concentrations for 48 hr for proliferation assay and 6 hr for caspase 3/7 activation assay. Proliferation was measured using MTS kit from Promega and expressed as relative cell proliferation with control group was normalized to 1. Caspase 3/7 activity was quantified using a kit from Promega and also expressed as relative caspase 3/7 activity of treated groups over control group.
Capspase 3/7 activity and lactate dehydrogenase (LDH) release were measured by Fluorometric assays (Promega Corp., WI, USA). The HCC cells were cultured in 96-well plate and treated with DBZIM of various concentrations for 6 hr before assays. For caspase 3/7 assay, medium was removed and substrate buffer was added to lyse the cell and react with caspase 3/7 to give rise to fluorescence signal which was read at Ex=485 nm and Em=530 nm on a Tecan Safire II plate reader after 1 hr incubation. The caspase 3/7 activity of sample cells with the compound treatment was expressed as relative fold change after normalizing to the control cells. The LDH assay (indicative of membrane integrity) was performed using a Kit from Promega Corp according to manufactor's instructions.

survivin in HLE cells = experiment: Survivin translocation assay (HCS); format: cell-based, human; details: 24 hr
Protocol: FIG. 25. DBZIM induced nucleus to cytoplasm translocation of survivin protein. (A) Representative immunocytostaining images of HLE cells treated by DBZIM (0 and 1.0 mM) for 24 hr. Arrows indicate the accumulation and the disappearance of survivin in the nucleus of the control and the DBZIM-treated cells, respectively. The images were acquired and analyzed using ArrayScan VTI HCS reader (Thermal Scientific, PA, USA) and Target Activation BioApplication software. (B) Quantitation of translocation event. Cells were grown in 96-well plate and treated by DBZIM of various concentrations for 24 hr before fixation and immunocytostaining for survivin. Lower value in “Cytoplasmic-Nuclear Difference” indicated a lower amount of cytoplasmic survivin.
HLE cells cultured in 96-well plate were treated with DBZIM for 24 hr before staining and imaging. Cells were then fixed and stained with antibodies against […] and Survivin. (Lab Vision Corp. CA, USA) and buffer reagent from Hitkit (Thermo Scientific, IL, USA). The cells were imaged and analyzed on ArrayScan VTI HCS reader (Thermal Scientific, PA, USA). Fluorescence intensity in the cytoplasmic and nuclear area was plotted for indication of cytoplasm to nucleus translocation.

AIF = AIF translocation (Western blot and HCS); format: cell-based, human; details: 24 hr
Protocol: FIG. 26. DBZIM induced cytoplasm-to-nucleus translocation of AIF. (A). DBZIM translocated AIF from cytoplasm to nucleus. HepG2 cells were treated by DBZIM for 24 hr. Cytoplasmic and nuclear proteins were fractionated using a kit from Pierce. 15 μg of proteins were resolved in 4-12% gradient PAGE-SDS gel. The target proteins were recognized by the antibody of AIF, and visualized by the ECL method. The membrane was stripped and re-probed for α-tubulin as the loading control for cytoplasmic fraction and Tata binding protein TBP for nuclear protein. (B). HLE cells were grown in 96-well plate and treated by DBZIM for 24 hr. The cells were then fixed and stained by antibody of AIF. The images were acquired and analyzed using ArrayScan VTI HCS reader (Thermal Scientific, PA, USA) and Target Activation BioApplication software. The arrows indicate the cytoplasmic and the nuclear location of the AIF staining in the control and the DBZIM, respectively. (C). Quantification of AIF staining in different subcellular compartments. […]
HLE cells cultured in 96-well plate were treated with DBZIM for 24 hr before staining and imaging. […] The cells were imaged and analyzed on ArrayScan VTI HCS reader (Thermal Scientific, PA, USA). Fluorescence intensity in the cytoplasmic and nuclear area was plotted for indication of cytoplasm to nucleus translocation. […]

## [Br-].c1ccc(Cn2cc[n+](Cc3ccccc3)c2)cc1 [DBZIM, 1,3-bisbenzylimidazolium bromide]
HLE cells
  ROS generation: generated significant amount of ROS
caspase-3/9 and PARP
  caspase-3/9 and PARP activation: time-dependently increased caspase-3/9 and PARP activity
C6
  elevation of caspase 3/7: 3 folds
Survivin in HLE cells
  survivin translocation: translocated from the nucleus to the cytoplasm
AIF
  AIF translocation: induce the translocation of AIF to the nucleus
